The values that follow are results of earlier work, collected in patent US20240192198A1, “BIOMIMETIC LIPOSOMES AND METHODS OF MAKING AND USING THE SAME” (Worcester Polytechnic Institute, priority 2022, published 2024).

For this data set the following is noted: hydrophobicity; obtained from the National Library of Medicine, PubChem Database.

As to `Nc1nc2ncc(CNc3ccc(C(=O)N[C@@H](CCC(=O)O)C(=O)O)cc3)nc2c(=O)[nH]1` [Folic acid], the logP (usually the decadic logarithm of the partition coefficient of the neutral form, usually between octanol and water) was −2.5.
